According to US4772596A, “Dihydropyridine derivatives, their preparation and their use” (Sankyo Company Limited, priority 1986, dated 1988):

What was measured:
[1] = tested on: spontaneously hypertensive rats of the SHR strain; assay: Antihypertensive activity in conscious spontaneously hypertensive rats (blood pressure and heart rate); details: po; for 12 Hour Area (integrated value of the area above the graph of blood pressure change against time): 12 hours after administration
Experimental: The test animals were spontaneously hypertensive rats of the SHR strain, each aged about 15 weeks. The antihypertensive activities of the test compounds were determined in these rats as follows.
Each animal was anaesthetized with sodium pentobarbital (50 mg/kg, intraperitoneally) and a polyethylene cannula was inserted into the abdominal aorta by the method of Weeks and Jones [J. R. Weeks and J. A. Jones, Proc. Soc. Exptl. […] The other end of the cannula left the animal's body at, and was fixed to, the neck. About 1 week after this surgery, when the animal had completely recovered from surgical stress, the free end of the aortic cannula was connected to a sphygmomanmeter to measure blood pressure and heart rate of the animal directly in the conscious, aparalytic and unrestrained state.
At this time, a test compound suspended in a 0.3% w/v aqueous carboxymethylcellulose solution was administered orally in the dose shown in the following Table 8.
Tmax : the time in hours after administration of the compound under test before the maximum change in blood pressure was recorded;
To 0.5 max : the time in hours after administration of the compound under test which is required for the blood pressure to return to one half of its maximum value;

isolated rat aorta = assay: Calcium antagonism: contractile response of isolated rat aorta to calcium chloride; type: cell-based; details: test compound 5 nM
Experimental: An isolated rat aorta was suspended in a calcium-free and high potassium Krebs-Henseleit solution maintained at a temperature of 37° C. The contractile response of the aorta to calcium chloride in concentrations ranging from 10^-5 to 10^-2 M was recorded by means of an isometric transducer. The dose-response curve of the aorta was obtained before and after addition of a test compound at a concentration of 5 nM. Addition of the test compound shifted the dose-response curve to the right, the magnitude of the shift depending upon the potency of the Ca^++ -blocking activity.

[2] = SHR, compared with nifedipine and nicardipine

COC(=O)C1=C(C)NC(C)=C(C(=O)OCCN(C)Cc2ccccc2)C1c1cccc([N+](=O)[O-])c1 (stereo not drawn) [nicardipine, reference compound]
T0.5 max (time after administration for the blood pressure to return to one half of its maximum value) ([1]; 3 mg/kg, SHR): 5.3 h
Tmax (time after administration before the maximum change in blood pressure) ([1]; 3 mg/kg, SHR): 0.5 h
12 Hour Area (integrated value of the area above the graph of blood pressure change against time) ([1]; 3 mg/kg, SHR): -175

CC1=C(C(=O)OC(C)C)C(c2cccc([N+](=O)[O-])c2)C(C(=O)OC2CN(C(c3ccc(F)cc3)c3ccc(F)cc3)C2)=C(N)N1 (stereo not drawn) [Compound 1-68, 3-[1-(4,4'-Difluorobenzhydryl)-3-azetidinyl]5-isopropyl 2-amino-6-methyl-4-(3-nitrophenyl)-1,4-dihydropyridine-3,5-dicarboxylate]
T0.5 max (time after administration for the blood pressure to return to one half of its maximum value) ([1]; 1 mg/kg, SHR): 11.8 h
Tmax (time after administration before the maximum change in blood pressure) ([1]; 1 mg/kg, SHR): 7.0 h
12 Hour Area (integrated value of the area above the graph of blood pressure change against time) ([1]; 1 mg/kg, SHR): -218

CC1=C(C(=O)OC(C)C)C(c2cccc([N+](=O)[O-])c2)C(C(=O)OC2CCN(C(c3ccccc3)c3ccccc3)C2)=C(N)N1 (stereo not drawn) [Compound 2-8, 3-(1-Benzhydryl-3-pyrrolidinyl) 5-isopropyl 2-amino-6-methyl-4-(3-nitrophenyl)-1,4-dihydropyridine-3,5-dicarboxylate]
T0.5 max (time after administration for the blood pressure to return to one half of its maximum value) ([1]; 1 mg/kg, SHR): 11.2 h
Tmax (time after administration before the maximum change in blood pressure) ([1]; 1 mg/kg, SHR): 6.0 h
12 Hour Area (integrated value of the area above the graph of blood pressure change against time) ([1]; 1 mg/kg, SHR): -172

COC(=O)C1=C(C)NC(C)=C(C(=O)OC)C1c1ccccc1[N+](=O)[O-] [nifedipine, reference compound]
12 Hour Area (integrated value of the area above the graph of blood pressure change against time) ([1]; 3 mg/kg, SHR): -237
heart rate ([1]; SHR): increased heart rate

CC1=C(C(=O)OC(C)C)C(c2cccc(Cl)c2Cl)C(C(=O)OC2CN(C(c3ccccc3)c3ccccc3)C2)=C(N)N1 (stereo not drawn) [Compound 1-59, 3-(1-Benzhydryl-3-azetidinyl) 5-isopropyl 2-amino-4-(2,3-dichlorophenyl)-6-methyl-1,4-dihydropyridine-3,5-dicarboxylate]
T0.5 max (time after administration for the blood pressure to return to one half of its maximum value) ([1]; 1 mg/kg, SHR): 12.0 h
Tmax (time after administration before the maximum change in blood pressure) ([1]; 1 mg/kg, SHR): 6.0 h
12 Hour Area (integrated value of the area above the graph of blood pressure change against time) ([1]; 1 mg/kg, SHR): -203

CC1=C(C(=O)OC(C)C)C(c2cccc([N+](=O)[O-])c2)C(C(=O)OC2CCCN(C(c3ccccc3)c3ccccc3)C2)=C(N)N1 (stereo not drawn) [Compound 3-8, 3-(1-Benzhydryl-3-piperidyl) 5-isopropyl 2-amino-6-methyl-4-(3-nitrophenyl)-1,4-dihydropyridine-3,5-dicarboxylate]
T0.5 max (time after administration for the blood pressure to return to one half of its maximum value) ([1]; 1 mg/kg, SHR): 11.4 h
Tmax (time after administration before the maximum change in blood pressure) ([1]; 1 mg/kg, SHR): 7.0 h
12 Hour Area (integrated value of the area above the graph of blood pressure change against time) ([1]; 1 mg/kg, SHR): -141

CC1=C(C(=O)OC(C)C)C(c2cccc([N+](=O)[O-])c2)C(C(=O)OC2CN(C(c3ccccc3)c3ccccc3)C2)=C(N)N1 (stereo not drawn) [Compound 1-11, 3-(1-Benzhydryl-3-azetidinyl) 5-isopropyl 2-amino-6-methyl-4-(3-nitrophenyl)-1,4-dihydropyridine-3,5-dicarboxylate]
duration of activity (calcium antagonism) (isolated rat aorta; isolated rat aorta): excellent duration of activity
rightwards shift of the calcium chloride dose-response curve (Ca++-blocking activity) (isolated rat aorta; calcium-free high potassium Krebs-Henseleit solution, 37° C): comparable with that of nifedipine
T0.5 max (time after administration for the blood pressure to return to one half of its maximum value) ([1]; 1 mg/kg, SHR): 10.4 h
Tmax (time after administration before the maximum change in blood pressure) ([1]; 1 mg/kg, SHR): 6.0 h
12 Hour Area (integrated value of the area above the graph of blood pressure change against time) ([1]; 1 mg/kg, SHR): -184
Tmax (time after administration before the maximum change in blood pressure) ([1]; 3 mg/kg, SHR): 5.0 h
12 Hour Area (integrated value of the area above the graph of blood pressure change against time) ([1]; 3 mg/kg, SHR): -334
duration of the antihypertensive activity [1, 2]: much longer than that produced by nifedipine and nicardipine
time of onset of activity / speed of lowering blood pressure [1, 2]: lowered blood pressure much more slowly than did nifedipine or nicardipine
heart rate ([1]; rat, in vivo): (but not Compound 1-11) increased heart rate
